Assay results as given in patent publication US20060111309A1, “Chalcomycin derivatives” (Biofrontera Discovery GmbH, priority 2002, published 2006).
In brackets after ≈: the same amount, converted by molar mass.

Columns and labels:
Format in all cases: cell-based
[1] = tested on: Stapylococcus aureus; assay: agar diffusion test; conditions: 10 μg/9 mm Ø plate
[2] = tested on: Escherichia coli; assay: agar diffusion test; conditions: 10 μg/9 mm Ø plate
[3] = tested on: Bacillus subtillis; assay: agar diffusion test; conditions: 10 μg/9 mm Ø plate
[4] = tested on: Candida albicans; assay: agar diffusion test; conditions: 10 μg/9 mm Ø plate
[5] = tested on: Mucor miehei; assay: agar diffusion test; conditions: 10 μg/9 mm Ø plate
[6] = tested on: Stapylococcus aureus; assay: dilution method MIC
[7] = tested on: Escherichia coli; assay: dilution method MIC
[8] = tested on: Bacillus subtillis; assay: dilution method MIC
[9] = tested on: Chlorella sorokiniana; assay: dilution method MIC
[10] = tested on: Scenedesmus subspicatus; assay: dilution method MIC

Row | Compound | diameter of the inhibition zone, SA [1] [mm] | diameter of the inhibition zone, EC [2] [mm] | diameter of the inhibition zone, BS [3] [mm] | diameter of the inhibition zone, CA [4] [mm] | diameter of the inhibition zone, MM [5] [mm] | MIC, SA [6] [µg/mL] | MIC, EC [7] [µg/mL] | MIC, BS [8] [µg/mL] | MIC, CS [9] [µg/mL] | MIC, SS [10] [µg/mL]
1 | CO[C@@H]1[C@H](O)[C@@H](C)O[C@@H](OC[C@H]2[C@@H]3O[C@H]3/C=C/C(=O)[C@@](C)(O)C[C@H](C)[C@H](O[C@@H]3O[C@H](C)C[C@H](OC)[C@H]3O)[C@@H](C)/C=C/C(=O)O[C@@H]2C)[C@@H]1OC [1a, Chalcomycin] | 30 | 32 | 25 | 0 | 0 | 0.39 (≈ 0.556 µM) | >50 | 6.25 (≈ 8.92 µM) | 50 (≈ 71.3 µM) | 50 (≈ 71.3 µM)
2 | CC[C@H]1OC(=O)[C@H](C)[C@@H](O[C@H]2C[C@@](C)(OC)[C@@H](O)[C@H](C)O2)[C@H](C)[C@@H](O[C@@H]2O[C@H](C)C[C@H](N(C)C)[C@H]2O)[C@](C)(O)C[C@@H](C)C(=O)[C@H](C)[C@@H](O)[C@]1(C)O [E, erythromycin] | 24 | 30 | 22 | – | – | – | – | – | – | –
3 | chalcomycin B [1b] | 23 | 28 | 21 | 0 | 0 | 0.39 | >50 | 6.25 | 50 | 50
